Measurements reported in patent publication US7098245B2, “Polynucleotide cleavage agent switched on by photo irradiation” (Tottori University, priority 2002, dated 2006).

Key:
DNA = conditions: background, symposium report 2001; cited from earlier work
supercoiled φX174 DNA = experiment: DNA cleavage test using (R,R)- and (S,S)-11 (Xe lamp, 45 min); assay type: biochemical
Description: The reaction was carried out in a solvent of 20 mM sodium phosphate of pH 7.0 and 20% DMSO. Samples were irradiated for 45 min at a distance of 6 cm using Xe lamp using polystylene filter. Electrophoresis (0.8% agarose gel, TAE buffer, 100 V, 40 min). Gel was stained by EtBr and visualized by UV-B lamp (transillumnator).

supercoiled φX-174 DNA = experiment: DNA cleavage test under photo-irradiation (Xe lamp with polystylene filter, 2 hrs); assay type: biochemical
Description: (§1) DNA cleavage test using (S,S)—NH2-mono under photo-irradiation φX174 RFI DNA (New England BioLabs, N3021S, 150 ┌M) (1 ┌L) was dissolved in a 10 mM sodium phosphate buffer pH 7.0 (9 ┌L) in a micro tube.
(§2) Ethyl 9-anthracene carboxylate (anth-OEt) was used as a control compound. Three samples were prepared: a buffer solution of DNA, a mixture of anth-OEt with a buffer solution of DNA, and a mixture of (S,S)—NH2-mono with a buffer solution of DNA. These samples were placed under a UV-A lamp (max=365 nm, trans illuminator) at a distance of 4 cm, and irradiated for 3 h. The resulting mixture was subjected to an electrophoresis experiment ([…], TAE buffer, 100 V, 30 min). The resulting agarose gel was stained with ethidium bromide (EtBr), visualized by UV-B lamp and the DNA cleavage ratio was determined by NIH Image 1.62.
The test was carried out using (R,R)— and (S,S)—NH2-mono in the same manner as described in Example 2 except that the test samples were placed under a Xe lamp with a polystylene filter at a distance of 3 cm and irradiated for 2 hrs.

[1] = Stability of the compound (sunlight in solution; after deprotection); assay type: physicochemical
Description: Part G. A solution of ester 5 (14.6 mg, 0.0307 mmol) in methanol (0.3 mL) was stirred at rt in the presence of Pd/C (3.0 mg, 20 wt %) under H2 (1 atm) for 15 h in the dark. The crude products were filtered through a sintered glass filter with a Celite pad, and the filtrate was dried under vacuo to afford the title compound (S,S)—NH2-mono(9.2 mg, 0.027 mmol) in 88% yield. This compound was unstable when dissolved in methanol or CHCl3 under the irradiation of sunlight; therefore, it should be kept under an argon atmosphere in a dark place.
The reaction was carried out in a flask that was covered by aluminum foil to keep out light. A solution of (R,R)-10 (18 mg, 0.038 mmol) in methanol (1.0 mL) was stirred at rt in the presence of Pd/C (5.4 mg, 30 wt %) under H2 (1 atom) for 5 days and filtered though a glass sintered glass filter with a Celite pad. The filtrate was evaporated under reduced pressure to give (R,R)—NH2-mono (9.9 mg, […]). This compound was unstable when dissolved in methanol or CHCl3 under the irradiation of sunlight; therefore, it should be kept under an argon atmosphere in a dark place.

φX174 RFI DNA = experiment: DNA cleavage test under photo-irradiation (UV-A lamp 365 nm, 3 h), agarose gel electrophoresis; assay type: biochemical; conditions: 4 cm, 10 mM sodium phosphate pH 7.0, samples 1, 5, 12 mM, 1 ┌L
Description: as §1, §2
The increased ratio of nicked DNA means that DNA was cleaved by the experimental conditions.

[2] = Xe lamp, polystylene filter, 3 cm, 2 hrs

O=C(OCC1C(COC(=O)c2c3ccccc3cc3ccccc23)C1(F)F)c1c2ccccc2cc2ccccc12 (stereo not drawn) [9-anthracene carboxylic diester of 1,3-bishydroxymethyl-2,2-difluoro-cyclopropane]
DNA cleavage activity (DNA): no significant DNA cleavage activity

O=C(NC[C@H]1[C@H](CO)C1(F)F)c1c2ccccc2cc2ccccc12 [(R,R)-11, (R,R)-2,2-difluoro-3-hydroxymethyl-cyclopropylmethyl anthracene-9-carboxamide]
equivalent versus the DNA base pair at that concentration (supercoiled φX174 DNA; 20 mM sodium phosphate pH 7.0, 20% DMSO): 1.3 equivalent | concentration at which supercoiled DNA was converted to the nicked form (supercoiled φX174 DNA; 20 mM sodium phosphate pH 7.0, 20% DMSO, 6 cm): 100 µM | DNA cleavage activity (qualitative) (supercoiled φX174 DNA; FIG. 5): strong DNA cleavage activity

NC[C@H]1[C@H](COC(=O)c2c3ccccc3cc3ccccc23)C1(F)F [(R,R)—NH2-mono, (R,R)-3-aminomethyl-2,2-difluoro-cyclopropylmethyl anthracene-9-carboxylate]
DNA cleavage strength relative to the (S,S)-isomer (supercoiled φX-174 DNA; Xe lamp, 2 hrs): more than 10 times | concentration required to convert supercoiled DNA to the nicked type DNA (supercoiled φX-174 DNA; [2]): 85.5 µM | equivalent versus supercoiled φX-174 DNA at the required concentration (supercoiled φX-174 DNA; [2]): 0.667 equivalent | activity relative to the corresponding (S,S)-isomer (description) (supercoiled φX-174 DNA; stated in detailed description): five times stronger activity | stability after deprotection of the amino protecting group [1]: unstable | stability when dissolved in methanol or CHCl3 under irradiation of sunlight [1]: unstable

NC[C@@H]1[C@@H](COC(=O)c2c3ccccc3cc3ccccc23)C1(F)F [(S,S)—NH2-mono, (S,S)-3-aminomethyl-2,2-difluoro-cyclopropylmethyl anthracene-9-carboxylate]
DNA cleavage activity (φX174 RFI DNA): weak DNA cleavage agent | concentration required to convert supercoiled DNA to the nicked type DNA (supercoiled φX-174 DNA; [2]): 1200 µM | stability after deprotection of the amino protecting group [1]: unstable | stability when dissolved in methanol or CHCl3 under irradiation of sunlight [1]: unstable

CCOC(=O)c1c2ccccc2cc2ccccc12 [anth-OEt, Ethyl 9-anthracene carboxylate, reference compound]
DNA cleavage activity (φX174 RFI DNA): no significant activity
